Reference: patent publication US20110071072A1, “Antifungal Bone Cements” (Georgetown University, A Congressionally Chartered …, priority 2009, published 2011)
Numbered stars: 1 amine (or outer) side, 2 acyl side, 3 side chain; on linkers, the order of the positions; unused ones are H or OH. Bridge positions count the residues as written; N and C are the ends. Square brackets hold non-standard residues; d marks the D form. Peptide text beside a SMILES is read from it. * marks the point of attachment. hTyr(3S-OH,4S-OH,3'-OSO3H) = N[C@H](C(=O)O)[C@H](O)[C@@H](O)c1ccc(O)c(OS(=O)(=O)O)c1; Orn(4R-OH,5R-OH) = O=C([C@H](C[C@@H](O)[C@@H](O)N[*:3])N[*:1])[*:2]; Pro(3S-OH,4S-Me) = C[C@H]1CN[C@H](C(=O)O)[C@H]1O; X1 = CCCCCOc1ccc(-c2cc(-c3ccc(C(=O)*)cc3)no2)cc1; Gln(3R-OH) = NC(=O)C[C@@H](O)[C@H](N)C(=O)O; Hyp = O=C(O)[C@@H]1C[C@@H](O)CN1

What was measured:
[1] = test system: C. albicans; assay: Agar diffusion: zone of growth inhibition around PM-cement discs impregnated with antifungal; assay type: cell-based; details: for duration of activity / inhibitory activity compared with voriconazole: PM cement discs; for duration of activity: days of incubation; for inhibitory activity compared with voriconazole: in words; for time up to which anti-candida activity was detected: cement discs, post-incubation
Protocol: The echinocandin antifungal micafungin or the triazole voriconazole were mixed with polymethylmethacrylate and a bone cement was formed using the mixture. C. albicans was grown overnight in T-soy broth, washed in buffer, then 1000 C. albicans yeast cells were added to the agar surface of a medium containing RPMI, MOPS, and 2% glucose, which was prepared by adding the latter to autoclaved agar after the agar had cooled for 15 min. Cement discs containing micafungin (100 mg) or voriconazole (400 mg) were prepared as described below. Each cement-antifungal disc was placed on the agar culture medium containing the organism.
The antifungal-cement mix (Smartset HV®, bone cement, DePuy (Warsaw, Ind.)) was prepared as follows under sterile conditions: the polymethylmethacrylate (PM) cement powder (part 1) was first mixed thoroughly with each drug and, then 18.88 g of bone cement liquid (part 2) was added to the mixture. Discs of cement-drug were prepared quickly before the cement hardened. Each cement disc (14 mm) was then placed in the center of inoculated agar cultures in 60 mm petri dishes. The plates were then incubated at 30° C. and zones of inhibition were measured every 24 hrs until activity was not observed (usually 6 days). The same discs were removed daily and placed on fresh agar medium that was inoculated similarly.
At 24 hrs, cement discs containing the antifungal micafungin were about 2.5-fold greater in activity that voriconazole. Further, the activity of micafungin was still detected at 120 hrs post-incubation, while no activity was detected after 24 hrs with voriconazole. Data were plotted as mm growth inhibition versus days of incubation (Table 1). The plates were digitally photographed using image processing software.

[2] = test system: C. albicans; assay: Growth inhibition by PM-cement or hydroxyapatite (HA) infiltrated with micafungin or anidulafungin (FIG. 2); assay type: cell-based, Candida albicans
Protocol: FIG. 2 is a graph showing comparisons of micafungin (MIC) and anidulafungin (ANA) infiltrated in hydrozyapatite (HA) or polymethylmethacrylate (PM)-cement and their inhibitory activity against C. albicans.
Both PM-cement and hydroxyapatite (HA) infiltrated with either micafungin or anidulafungin were evaluated. […] The results again indicated the superiority of micafungin (especially the longevity or diffusion of the drug) regardless of whether the drug was infiltrated in HA or PM cement.

Row | Structure (SMILES) | duration of activity [1] [days] | inhibitory activity compared with voriconazole [1] | inhibitory activity compared with voriconazole ([1]; listed as Micafungin) | activity of cement discs relative to voriconazole discs ([1]; at 24 hrs, micafungin 100 mg vs voriconazole 400 mg discs) | time up to which anti-candida activity was detected [1] [h] | in vitro anti-Candida albicans activity, comparison ([2]; HA or PM cement, in words) | persistence of activity ([2]; drug infiltrated in HA or PM cement) [days] | duration of activity ([1]; listed as voriconzole) [days]
1 | CCCCCOc1ccc(-c2cc(-c3ccc(C(=O)N[C@H]4C[C@@H](O)[C@@H](O)NC(=O)[C@@H]5[C@@H](O)[C@@H](C)CN5C(=O)[C@H]([C@H](O)CC(N)=O)NC(=O)[C@H]([C@H](O)[C@@H](O)c5ccc(O)c(OS(=O)(=O)O)c5)NC(=O)[C@@H]5C[C@@H](O)CN5C(=O)[C@H]([C@@H](C)O)NC4=O)cc3)no2)cc1 [micafungin] (X1-[Orn(4R-OH,5R-OH)]T[Hyp][hTyr(3S-OH,4S-OH,3'-OSO3H)][Gln(3R-OH)][Pro(3S-OH,4S-Me)]; lactam 1-C) | ≥ 6 | much greater | superior and longer lasting | about 2.5 fold | ≥ 120 | significantly greater than that of voriconazole and anidulafungin | 6 to 7 | 
2 | C[C@@H](c1ncncc1F)[C@](O)(Cn1cncn1)c1ccc(F)cc1F [voriconazole] | 1 |  |  |  | ≤ 24 |  |  | ≤ 1
